Source: patent US20240277658A1, “NLRP3 ACTIVATORS FOR USE IN THE TREATMENT OF INFECTIOUS DISEASES OR CANCER BY ACTIVATING NLRP3 INFLAMMASOME” (ALBERT-LUDWIGS-UNIVERSITÄT FREIBURG, priority 2020, published 2024)
Where “and” joins values, the source holds several entries; their conditions need not be identical. Equal entries are not always repeated. Structures can show the parent of a compound that is named as a salt. Where two headings read alike, the source gives them in different places.

Columns and labels:
BMDCs = assay: LDH release (lytic cell death, pyroptosis) from LPS-primed BMDCs; assay type: cell-based, mouse; settings: for Average (% positive control): LDH release; for cytotoxicity at 25 µM / cytotoxicity at 50 µM / cytotoxicity at 100 µM / cytotoxicity at 5 µM: Mus musculus, BMDC
Experimental: (§1) This was tested in cell culture in several different in vitro assays classically used to investigate inflammasome activation. These include measuring inflammasome-dependent lytic cell death (pyroptosis) by detecting release of the cytosolic enzyme lactate dehydrogenase (LDH) using a commercial colorimetric assay and release of proinflammatory cytokines like IL-1β by enzyme-linked immunosorbent assay (ELISA), analyzing cleavage and activation of caspase-1 and IL-1β by immunoblotting and immunofluorescence imaging of ASC speck formation. Lytic cell death was determined via LDH release. Assay results for compounds are illustrated in the Tables below, wherein the concentration of the compounds tested had been 50 μM or as indicated in the table, and the concentration of the known activators has been tested with 5 μM of nigericin, 100 μM of each R837 and CL097. For classification of the activity of a given molecule, release of IL-1β was quantified as % of IL-1% of a respective control activator used for the experiment (highlighted in tables with bold letters). The compounds listes in Table 1 were classified into 4 groups depending on their ability to induce the NLRP3 inflammasome activation, assessed by % IL-1β release as compared to the positive control.
(§2) Mouse bone marrow-derived dendritic cells (BMDCs) were isolated from femurs and tibias previously described (Gross, Olaf, 2012, “Measuring the inflammasome”, Methods in molecular biology, Clifton, N.J., 844, pp. 199-222.). In brief, tibias and femurs were carefully removed and put to sterile 70% ethanol for 1 minute. Using a 22-G needle attached to a 20 ml-syringe filled with sterile flushing medium, the bone marrow was pressed through the mesh of a […] cell strainer. The cells were spun down by centrifugation at 400×g, 4° C. for 5 minutes and red blood cells lysed by resuspension and incubation for 5 minutes at room temperature in RBC lysis buffer. 9 ml of flushing medium were added and cells were again spun down by centrifugation at 400×g, 4° C. for 5 minutes. Cells were then resuspended in BMDC medium (RPMI, 10% fetal bovine serum, 1% penicillin-streptomycin100 U/ml, 20 ng/ml recombinant murine GM-CSF), counted and plated at a density of 0.5×10^6 cells ml^−1 in 10 ml medium and incubated at 37° C., 5% CO2 in a humidified incubator. After 2 days, 10 ml of fresh medium were added to the cells and after 4 days, the medium was fully exchanged to 20 ml of fresh medium. The cells were allowed to differentiate for 6 to 8 days before usage.
(§3) For canonical inflammasome activation BMDCs after 7-9 days of differentiation were harvested and counted with a Neubauer Chamber (Hecht Assistant) and the concentration was set to 1 Mio cells ml^−1. 100 μl cell suspension per well were seeded in 96-well plates. The cells were primed with 50 ng ml^−1 E. coli K12 ultra-pure LPS for 3 hours and subsequently treated with canonical inflammasome activators or experimental compounds for 3 hours if not indicated differently (incubation time FIG. 4D, 5, 7, 8, 11, 13-18: 3 h, FIG. 12: 4 h). Concentrations of the stimuli were as follows if not indicated differently: 5 μM nigericin, 100 μM imiquimod (also known as R837), 100 μM CL097, 100 μM R848, […] poly(dA:dT), 300 μg ml^−1 MSU. If an inhibitor was used before stimuli treatment, the inhibitor was added after 2.5 hours of priming and it was incubated for 30 minutes before inflammasome activation. Inhibitors were used as follows: 3 μM MCC950, 45 mM KCl, 30 μM ebselen (2-Phenyl-1,2-benzoselenazol-3-one), 5 μM cytochalasin D (see FIGS. 8, 11, 12 and 17).
(§4) All inflammasome stimulations were performed in three technical replicates for each condition. […]

NLRP3 inflammasome = molecular target: T1, NLRP3 inflammasome (Mus musculus, UniProt Q8R4B8); assay: IL-1β release from LPS-primed BMDCs (ELISA) as readout of NLRP3 inflammasome activation; assay type: cell-based
T1 construct: endogenous in cells; host or cells: primary mouse bone marrow-derived dendritic cells (BMDCs), LPS-primed
T1 sequence (Q8R4B8 whole entry): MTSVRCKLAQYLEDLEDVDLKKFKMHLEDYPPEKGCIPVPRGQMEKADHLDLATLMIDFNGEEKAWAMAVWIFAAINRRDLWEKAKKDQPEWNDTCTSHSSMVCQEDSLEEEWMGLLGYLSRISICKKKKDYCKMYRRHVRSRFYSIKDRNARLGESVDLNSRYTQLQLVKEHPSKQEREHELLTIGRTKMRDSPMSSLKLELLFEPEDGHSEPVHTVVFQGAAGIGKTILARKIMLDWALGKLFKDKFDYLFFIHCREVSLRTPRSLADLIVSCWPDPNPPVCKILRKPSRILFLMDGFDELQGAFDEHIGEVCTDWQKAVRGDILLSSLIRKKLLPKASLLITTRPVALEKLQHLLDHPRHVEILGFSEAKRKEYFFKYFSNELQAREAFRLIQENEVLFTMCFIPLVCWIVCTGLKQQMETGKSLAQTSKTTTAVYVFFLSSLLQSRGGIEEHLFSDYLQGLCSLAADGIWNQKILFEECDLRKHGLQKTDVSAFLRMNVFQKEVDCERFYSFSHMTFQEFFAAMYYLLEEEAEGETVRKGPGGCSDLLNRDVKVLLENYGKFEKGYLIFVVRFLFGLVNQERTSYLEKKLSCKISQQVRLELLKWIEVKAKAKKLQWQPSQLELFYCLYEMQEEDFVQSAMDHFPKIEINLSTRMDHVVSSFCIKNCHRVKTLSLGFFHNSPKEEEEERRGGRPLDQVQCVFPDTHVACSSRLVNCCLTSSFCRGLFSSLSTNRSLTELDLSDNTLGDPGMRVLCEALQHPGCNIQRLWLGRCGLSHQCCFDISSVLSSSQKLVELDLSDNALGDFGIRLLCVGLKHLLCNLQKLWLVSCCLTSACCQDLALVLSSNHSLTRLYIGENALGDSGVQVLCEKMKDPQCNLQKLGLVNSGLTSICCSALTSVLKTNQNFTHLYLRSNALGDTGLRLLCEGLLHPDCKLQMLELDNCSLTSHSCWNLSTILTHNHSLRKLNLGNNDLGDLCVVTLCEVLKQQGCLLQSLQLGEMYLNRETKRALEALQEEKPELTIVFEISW
Experimental: as §1, §2, §3, §4

[1] = compound 50 μM, positive control nigericin 5 μM
[2] = compound 50 μM, LPS-primed BMDCs, read-out: Average LDH release (% of max.)
[3] = single replicates, compound 50 μM, LPS-primed BMDCs, read-out: LDH release (% of max.)
[4] = IL-1β release, compound 50 μM, positive control nigericin 5 μM
[5] = compound 50 μM, LPS-primed BMDCs
[6] = single replicates, compound 50 μM, LPS-primed BMDCs

Row | SMILES | Average (% positive control) (BMDCs; [1]) | cytotoxicity at 50 µM (BMDCs; [2]) [%] | cytotoxicity at 50 µM (BMDCs; [3]) [%] | Average (% positive control) (NLRP3 inflammasome; [4]) | Average IL-1β (NLRP3 inflammasome; [5]) [ng/mL] | IL-1β (NLRP3 inflammasome; [6]) | other results
1 | O=C(Nc1ccc2ncccc2c1)NC1CCCCC1 [EN11-02, 1-cyclohexyl-3-(quin-olin-6-yl)urea] | – | – | – | – | – | – | Average (% positive control) (BMDCs; 25 μM, positive control EN22 25 μM): 20.897 % positive control; Average (% positive control) (BMDCs; 50 μM, positive control EN22 25 μM): 21.105 % positive control; Average (% positive control) (BMDCs; 100 μM, positive control EN22 25 μM): 19.808 % positive control; cytotoxicity at 25 µM (BMDCs; 25 μM, EN11 series table, read-out: Average LDH release (% of max.)): 10.6%; cytotoxicity at 25 µM (BMDCs; 25 μM, individual replicate values, EN11 series table, read-out: LDH release (% of max.)): 10.8%; cytotoxicity at 50 µM (BMDCs; 50 μM, EN11 series table, read-out: Average LDH release (% of max.)): 10.7%; cytotoxicity at 50 µM (BMDCs; 50 μM, individual replicate values, EN11 series table, read-out: LDH release (% of max.)): 10.4%; cytotoxicity at 100 µM (BMDCs; 100 μM, individual replicate values, read-out: LDH release (% of max.)): 10.1%; cytotoxicity at 100 µM (BMDCs; 100 μM, read-out: Average LDH release (% of max.)): 10.1%; Average IL-1β (NLRP3 inflammasome; 25 μM, EN11 series table): 0.015 ng/mL; IL-1β (NLRP3 inflammasome; 25 μM, individual replicate values, EN11 series table): 0.015 ng/mL; Average IL-1β (NLRP3 inflammasome; 50 μM, EN11 series table): 0.042 ng/mL; IL-1β (NLRP3 inflammasome; 50 μM, individual replicate values, EN11 series table): 0.040 ng/mL and 0.050 ng/mL and 0.036 ng/mL; Average IL-1β (NLRP3 inflammasome; 100 μM): 0.050 ng/mL; IL-1β (NLRP3 inflammasome; 100 μM, individual replicate values): 0.053 ng/mL and 0.052 ng/mL and 0.046 ng/mL; Average (% positive control) (NLRP3 inflammasome; IL-1β, 25 μM, positive control EN22 25 μM): 1.019 % positive control; Average (% positive control) (NLRP3 inflammasome; IL-1β, 50 μM, positive control EN22 25 μM): 2.832 % positive control; Average (% positive control) (NLRP3 inflammasome; IL-1β, 100 μM, positive control EN22 25 μM): 3.424 % positive control
2 | CC(C)C(=O)Nc1cccc(NC(=O)Nc2ccccc2)c1 [L01.023, 2-methyl-N-{3-[(phenyl-carbamoyl)amino]phen-yl}propanamide] | 7.611 | 5.57 | 5.1 | 1.021 | 0.073 | 0.065 ng/mL and 0.075 ng/mL and 0.080 ng/mL | –
3 | O=C(Nc1ccccc1)Nc1cccc(N2CCOC2=O)c1 [L01.045, 1-[3-(2-oxo-1,3-oxazol-idin-3-yl)phenyl]-3-phenylurea] | 7.094 | 5.19 | 5.98 | 1.568 | 0.112 | 0.103 ng/mL and 0.116 ng/mL and 0.118 ng/mL | –
4 | CC(C)Oc1ccccc1NC(=O)NCc1nc(C2CC2)no1 [L01.083, 3-[(3-cyclopropyl-1,2,4-oxadiazol-5-yl)-methyl]-1-[2-(propan-2-yloxy)phenyl]urea] | 8.649 | 6.33 | 6.8 | 1.180 | 0.085 | 0.080 ng/mL and 0.077 ng/mL and 0.097 ng/mL | –
5 | O=C1CN(c2ccccc2)C(=O)N1Cc1nc(-c2ccc(Cl)cc2)no1 [L01.049, 3-{[3-(4-chlorophenyl)-1,2,4-oxadiazol-5-yl]-methyl}-1-phenylimid-azolidine-2,4-dione] | 16.093 | 11.8 | 12.6 | 4.189 | 0.300 | 0.330 ng/mL and 0.251 ng/mL and 0.319 ng/mL | –
6 | CO[C@@H]1C[C@@H](C[C@H]2CC[C@H](C)[C@H]([C@@H](C)C(=O)O)O2)O[C@]2(O[C@](C)([C@H]3CC[C@@](C)([C@@H]4O[C@@H]([C@H]5O[C@@](O)(CO)[C@H](C)C[C@@H]5C)C[C@@H]4C)O3)C[C@H]2C)[C@@H]1C [Nigericin, Nigericin sodium salt, reference compound] | – | – | – | – | – | – | Average (% positive control) (BMDCs; 5 μM, positive control nigericin 5 μM): 100.000 % positive control; cytotoxicity at 5 µM (BMDCs; 5 μM, LPS-primed BMDCs, read-out: Average LDH release (% of max.)): 73.2%; cytotoxicity at 5 µM (BMDCs; section 1.3, 5 μM, read-out: Average LDH release (% of max.)): 53.7%; cytotoxicity at 5 µM (BMDCs; single replicates, 5 μM, LPS-primed BMDCs, read-out: LDH release (% of max.)): 61.9%; Average (% positive control) (BMDCs; section 1.3, 5 μM, positive control nigericin 5 μM): 100.000 % positive control; Average IL-1β (NLRP3 inflammasome; 5 μM, LPS-primed BMDCs): 7.168 ng/mL; Average (% positive control) (NLRP3 inflammasome; IL-1β release, 5 μM, positive control nigericin 5 μM): 100.000 % positive control; Average IL-1β (NLRP3 inflammasome; section 1.3, 5 μM): 3.151 ng/mL; Average (% positive control) (NLRP3 inflammasome; section 1.3, IL-1β release, 5 μM, positive control nigericin 5 μM): 100.000 % positive control; IL-1β (NLRP3 inflammasome; section 1.3, single replicates, 5 μM, sodium salt): 3.007 ng/mL and 3.127 ng/mL and 3.318 ng/mL; IL-1β (NLRP3 inflammasome; single replicates, 5 μM, LPS-primed BMDCs, sodium salt): 6.834 ng/mL and 6.400 ng/mL and 7.872 ng/mL and 6.518 ng/mL and 7.890 ng/mL and 7.496 ng/mL
7 | O=C(NCc1nc(C2CC2)no1)Nc1cccc(F)c1 [L01.081, 3-[(3-cyclopropyl-1,2,4-oxadiazol-5-yl)methyl]-1-(3-fluorophenyl)urea] | 8.656 | 6.33 | 6.87 | 1.093 | 0.078 | 0.075 ng/mL and 0.072 ng/mL and 0.088 ng/mL | –
8 | O=C(Nc1ccccc1)Nc1cccc(NC(=O)c2ccoc2)c1 [L01.027, N-{3-[(phenylcarbamo-yl)amino]phenyl}furan-3-carboxamide] | 9.387 | 6.87 | 5.2 | 2.451 | 0.176 | 0.149 ng/mL and 0.197 ng/mL and 0.181 ng/mL | –
9 | O=C(Nc1ccccc1)Nc1ccc(NC(=O)c2ccoc2)cc1 [L01.092, N-{4-[(phenylcarbamo-yl)amino]phenyl}furan-3-carboxamide] | 20.483 | 15 | 16.4 | 15.066 | 1.080 | 1.253 ng/mL and 1.060 ng/mL and 0.927 ng/mL | –
10 | O=C(Nc1ccccc1)Nc1cccc([N+](=O)[O-])c1 [L01.108, 3-(3-nitrophenyl)-1-phenylurea] | 14.362 | 10.5 | 10.9 | 0.973 | 0.070 | 0.076 ng/mL and 0.061 ng/mL and 0.072 ng/mL | –
